Earlier results as cited in patent publication US6953790B2, “CGRP receptor antagonists” (Merck & Co., Inc., priority 2003, dated 2005).
No end group written: not given here.

Columns and labels:
facial blood flow [1] = details: marmoset, electrical stimulation of the trigeminal ganglion (Doods et al. 2000)
CGRP receptor = molecular target: T1, CGRP receptor (Homo sapiens, UniProt O60894+Q16602); details: clinical trials (Olesen et al. 2004)
T1 construct: host or cells: human migraine patients (in vivo)

middle meningeal artery = details: rats, electrical stimulation of the dura mater, prior administration (Williamson et al. 1997)
facial blood flow [2] = details: rat, trigeminal ganglion stimulation (Escott et al. 1995)

T1 sequence (Q16602 23-461): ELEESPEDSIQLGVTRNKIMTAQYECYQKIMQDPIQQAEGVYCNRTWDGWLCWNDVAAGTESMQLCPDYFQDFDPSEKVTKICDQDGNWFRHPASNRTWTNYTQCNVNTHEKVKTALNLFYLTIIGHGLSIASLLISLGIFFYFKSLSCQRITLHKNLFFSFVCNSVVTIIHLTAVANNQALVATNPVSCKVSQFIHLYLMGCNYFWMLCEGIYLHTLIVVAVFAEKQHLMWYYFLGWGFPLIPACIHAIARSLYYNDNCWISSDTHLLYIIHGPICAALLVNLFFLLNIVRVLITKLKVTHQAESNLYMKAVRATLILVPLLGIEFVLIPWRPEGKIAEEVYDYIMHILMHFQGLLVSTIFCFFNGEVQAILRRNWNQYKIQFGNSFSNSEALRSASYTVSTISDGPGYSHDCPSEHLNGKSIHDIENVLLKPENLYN
T1 sequence (O60894 27-148): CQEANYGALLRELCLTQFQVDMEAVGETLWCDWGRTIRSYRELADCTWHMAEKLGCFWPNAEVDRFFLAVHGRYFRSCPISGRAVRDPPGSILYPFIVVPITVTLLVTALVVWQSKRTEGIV

Row | Molecule | effect on increase in facial blood flow (facial blood flow [1]) | efficacy in acute attacks of migraine (CGRP receptor) | effect on increase in diameter of the middle meningeal artery (middle meningeal artery) | effect on increased facial blood flow (facial blood flow [2])
1 | NCCCC[C@H](NC(=O)[C@@H](Cc1cc(Br)c(O)c(Br)c1)NC(=O)N1CCC(N2Cc3ccccc3NC2=O)CC1)C(=O)N1CCN(c2ccncc2)CC1 [BIBN4096BS] | blocked | effective in treating acute attacks of migraine |  | 
2 | CGRP(8-37): "a peptide CGRP antagonist" (VTHRLAGLLSRSGGVVKNNFVPTNVGSKAF; ends and bridges not checked; UniProt P06881 90-119, looked up, fragment) |  |  | blocked | inhibited
